The values below come from patent publication US20140155330A1, “Compositions And Methods For Modulating Apoptosis” (Yeda Research and Development Co. Ltd., priority 2011, published 2014).

Series [1] deals with Atg12-Bcl-2 interaction (Homo sapiens, UniProt P10415). In words: Co-immunoprecipitation of Flag-Atg12 with endogenous Bcl-2, competition by Bcl-2 inhibitor. The class given is binding. Particulars: Atg12 immunoprecipitates from HEK293 cells incubated with 10 μM ABT-737 vs DMSO; western blot (FIG. 5G). The source says: (A) Sequence alignment of the BH3-like region of Atg12 with BH3 domains of the Bcl-2 family using ClustalW. […] Species abbreviations: Hs, Homo sapiens; Sc, Saccharomyces cerevisiae; Dm, Drosophila melanogaster. (B) Co-immunoprecipitation of Flag-tagged hAtg12 and Bcl-2 or Mcl-1 from HEK293 cells co-transfected as indicated. (C) Co-immunoprecipitation of Flag-tagged hAtg12 with endogenous Bcl-2 and Mcl-1 from HEK293 cells. (D) Co-immunoprecipitation of endogenous Atg12 and endogenous Mcl-1 in HEK293 and HeLa cells. (E) Co-immunoprecipitation of Flag-tagged Atg12 and endogenous Bcl-2 in HeLa cells treated with STS (3 μM; 4 h). (F) Co-immunoprecipitation of Flag-tagged Atg12 and endogenous Bcl-2 in HEK293 cells co-expressing a control plasmid (CAT) or HA-tagged BAD. (G) Flag-Atg12 was immunoprecipitated from HEK293 cells and incubated with either 10 μM ABT-737 or DMSO (vehicle control). Co-precipitating Bcl-2 was assessed by western blot after elution with excess Flag peptide. (H) Co-immunoprecipitation of wild-type Atg12 or Atg12/D64 mutants with Bcl-2 in HEK293 cells co-transfected as indicated.
Atg12-Bcl-2 interaction (Homo sapiens, UniProt P10415), sequence (P10415 whole entry, the tested form may be a part): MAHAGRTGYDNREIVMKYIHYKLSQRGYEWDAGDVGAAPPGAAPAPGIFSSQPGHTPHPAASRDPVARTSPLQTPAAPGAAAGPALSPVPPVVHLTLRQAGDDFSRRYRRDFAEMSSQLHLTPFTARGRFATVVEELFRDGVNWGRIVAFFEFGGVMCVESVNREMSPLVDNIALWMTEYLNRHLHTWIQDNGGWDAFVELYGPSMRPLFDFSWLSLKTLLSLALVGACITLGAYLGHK
For orientation: In western blotting, separated proteins are transferred to a membrane and probed.

Another series concerns the target Atg12-Mcl-1 interaction (Homo sapiens, UniProt Q07820). Kind of series: Co-immunoprecipitation of Flag-Atg12 with Mcl-1, competition by Bcl-2 inhibitor. Particulars: Atg12 immunoprecipitates from HEK293 cells incubated with 10 μM ABT-737 (FIG. 5G). The series is classed as binding.
Series [2] deals with Atg12-Bcl-2 interaction. In words: Co-immunoprecipitation of Flag-tagged Atg12 and endogenous Bcl-2 in STS-treated HeLa cells. The series is classed as cell-based, human. To be noted: STS 3 μM, 4 h (FIG. 5E). The text has this:
(A) Sequence alignment of the BH3-like region of Atg12 with BH3 domains of the Bcl-2 family using ClustalW. The four conserved BH3 hydrophobic residues are colored in grey, and the conserved “GD” residues in black. Arrow indicates critical Asp64 residue in hAtg12. Species abbreviations: Hs, Homo sapiens; Sc, Saccharomyces cerevisiae; Dm, Drosophila melanogaster. (B) Co-immunoprecipitation of Flag-tagged hAtg12 and Bcl-2 or Mcl-1 from HEK293 cells co-transfected as indicated. (C) Co-immunoprecipitation of Flag-tagged hAtg12 with endogenous Bcl-2 and Mcl-1 from HEK293 cells. (D) Co-immunoprecipitation of endogenous Atg12 and endogenous Mcl-1 in HEK293 and HeLa cells. (E) Co-immunoprecipitation of Flag-tagged Atg12 and endogenous Bcl-2 in HeLa cells treated with STS (3 μM; 4 h). (F) Co-immunoprecipitation of Flag-tagged Atg12 and endogenous Bcl-2 in HEK293 cells co-expressing a control plasmid (CAT) or HA-tagged BAD. (G) Flag-Atg12 was immunoprecipitated from HEK293 cells and incubated with either 10 μM ABT-737 or DMSO (vehicle control). Co-precipitating Bcl-2 was assessed by western blot after elution with excess Flag peptide. (H) Co-immunoprecipitation of wild-type Atg12 or Atg12/D64 mutants with Bcl-2 in HEK293 cells co-transfected as indicated. In B, C, F-H, DAP1-Flag was used instead of Flag-Atg12 as a negative control for co-immunoprecipitation. […]

The test system of the next series is Bax. Kind of series: Immunoprecipitation of conformationally active Bax (6A7 antibody) from HeLa cells. To be noted: HeLa cells treated with STS; conformation-specific antibody 6A7 (FIG. 11C). The series is classed as cell-based, human. The procedure: Conformationally active Bax was immunoprecipitated with anti-Bax antibody (6A7, Abcam). Cell pellets from STS-treated HeLa cells (3 μM, 4 h; Sigma Aldrich) were resuspended in 1% CHAPS (3-[(3-cholamidopropyl)-dimethylammonio]-1-propanesulfonate) buffer supplemented with protease and phosphatase inhibitors. Pre-cleared cell lysates were incubated with 2 μg antibody overnight at 4° C., followed by incubation with protein G agarose beads. Beads were washed with lysis buffer and boiled in sample buffer. Western blot detection of total Bax was performed with anti-Bax N20 antibody (Santa Cruz Biotechnology).
Next, it was assessed whether the depletion of Atg12 affected early events in the apoptotic cascade that are regulated by anti-apoptotic Bcl-2 proteins. […] Importantly, Bax activation was restored upon enforced expression of an siRNA-resistant construct of Atg12 (FIG. 11D).

The subject of series [3] is Flag-tagged human Atg12 (wild type).
The next series deals with T1, Flag-tagged Bcl-2 (UniProt P10415 1-239).
T1 construct: Expressed in HEK293 cells and immunoprecipitated on anti-FLAG beads; also called Flag-Bcl-2; not shown: Flag tag
T1 sequence (P10415 whole entry): as the sequence (P10415 whole entry, the tested form may be a part) above
In words: immunoprecipitation of Flag-tagged Bcl-2, western blot for endogenous Atg12. The procedure:
(§1) For co-immunoprecipitation, HEK293 cells were transiently transfected with the indicated plasmids. Cell pellets were lysed in B buffer (0.4% NP-40, 0.5 mM EDTA, 100 mM KCl, 20 mM Hepes pH 7.6, 20% glycerol) supplemented with protease and phosphatase inhibitors. […] In Example 7, an irrelevant tagged protein (DAP1-Flag) was used as control.
The conjugation of Atg12 to Atg5 is an essential step in the process of autophagy. In order to establish whether Bcl-2 binds to free Atg12, or to the Atg5-Atg12 conjugate, the nature of endogenous Atg12 that is co-immunoprecipitated with Bcl-2 was examined more closely. Upon immunoprecipitation of Flag-tagged Bcl-2 from HEK293 cells, a single band corresponding to the size of unconjugated Atg12 was observed, with no traces at the expected conjugate size (FIG. 7A, left). Furthermore, neither of Atg12's reported conjugation partners, Atg5 or Atg3, could be detected on this blot. […] The interaction between Bcl-2 and free Atg12 is significant, considering that unconjugated Atg12 represents only a small fraction of cellular Atg12, whereas the majority of the protein is conjugated to Atg5, even under basal conditions when autophagy is not induced (FIG. 7A, right).

The next series concerns the target T2, Bcl-2 G145A (UniProt P10415 1-239).
T2 construct: Co-transfected with Flag-Atg12 in HEK293 cells; also called point mutation in the BH1 domain of Bcl-2
In words: co-immunoprecipitation, transiently transfected HEK293 cells. The procedure: as §1
Therefore experiments were performed to test whether Atg12 was able to interact with members of each subgroup, specifically Bcl-2 and Mcl-1. In transiently transfected HEK293 cells, wild-type Bcl-2 co-immunoprecipitated with Flag-Atg12 (FIG. 5B). […] The specificity of the interaction was further confirmed by reciprocal co-immunoprecipitation, in which Flag-Bcl-2 pulled down ectopically expressed Atg12 (FIG. 6B). In addition, Mcl-1 also co-immunoprecipitated with Flag-Atg12 upon co-expression (FIG. 5B), and Flag-Atg12 interacted with endogenous Bcl-2 and Mcl-1 (FIG. 5C). Thus, Atg12 is able to bind promiscuously to both subgroups of Bcl-2-related proteins.

T2 sequence (P10415 whole entry G145A, the tested form may be a part): as the sequence (P10415 whole entry, the tested form may be a part) above, with G145A counted along it
Atg12-Mcl-1 interaction, sequence (Q07820 whole entry): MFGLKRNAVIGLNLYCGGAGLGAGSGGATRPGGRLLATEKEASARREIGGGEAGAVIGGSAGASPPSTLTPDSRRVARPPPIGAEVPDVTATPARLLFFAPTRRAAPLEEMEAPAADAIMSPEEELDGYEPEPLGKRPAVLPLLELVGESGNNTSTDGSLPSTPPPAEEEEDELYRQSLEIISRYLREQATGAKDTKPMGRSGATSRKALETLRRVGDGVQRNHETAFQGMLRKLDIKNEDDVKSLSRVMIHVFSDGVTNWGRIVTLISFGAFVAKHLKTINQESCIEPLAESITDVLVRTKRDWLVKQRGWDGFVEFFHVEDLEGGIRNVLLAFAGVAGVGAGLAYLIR

For the molecule `CN(C)CC[C@H](CSc1ccccc1)Nc1ccc(S(=O)(=O)NC(=O)c2ccc(N3CCN(Cc4ccccc4-c4ccc(Cl)cc4)CC3)cc2)cc1[N+](=O)[O-]` [ABT-737], on Atg12-Bcl-2 interaction [1], the “interaction between Flag-Atg12 and endogenous Bcl-2” value is on record as “disrupted”. Besides, at Atg12-Mcl-1 interaction, the “binding of Atg12 to Mcl-1” value is on record as “not affected”.

With `CN[C@@H]1C[C@H]2O[C@@](C)([C@@H]1OC)n1c3ccccc3c3c4c(c5c6ccccc6n2c5c31)C(=O)NC4` [STS, staurosporine], the “binding of Flag-Atg12 to endogenous Bcl-2” value in the series with Atg12-Bcl-2 interaction [2] is “increased”. The Bax activation entry in the series with Bax is “activation of Bax”.

On to recombinant p38 purified from bacteria, for which the “in-vitro kinase assay (33P-ATP); phospho-mapping by mass spectrometry” value in series [3] is “p38 phosphorylates Atg12 in an in-vitro kinase assay; the site of phosphorylation was Thr65 in Atg12”.

B1: Atg12 (human; untagged, endogenous, or tag not stated) (other)
chain: MAEEPQSVLQLPTSIAAGGEGLTDVSPETTTPEPPSSAAVSPGTEEPAGDTKKKIDILLKAVGDTPIMKTKKWAVERTRTIQGLIDFIKKFLKLVASEQLFIYVNQSFAPSPDQEVGTLYECFGSDGKLVLHYCKSQAWG
notes: also called hAtg12; endogenous Atg12
For B1, the binding result in the series with Flag-tagged Bcl-2 is “binds”.

B2: Flag-tagged human Atg12 (wild type) (other)
chain: B1 chain
notes: Expressed from pcDNA3 in HEK293 or HeLa cells and pulled down on anti-FLAG M2 beads; Also used here for the recombinant Atg12 made in E. coli and purified on FLAG-agarose (kinase assay); also called Flag-Atg12; Flag-tagged hAtg12; not shown: Flag tag
As for B2, the binding result with Bcl-2 G145A is listed as “no binding”.
